{"source": "patent US7988984B2", "about": "“Insect repellent and attractant and auto-thermostatic membrane vapor control delivery system” (Energy Related Devices, Inc., priority 2005, dated 2011)", "key": {"mosquitoes [1]": {"system": "mosquitoes", "assay": "Mosquitoes tracking and locating a human with a fresh coating of DEET on the skin", "format": "in vivo", "conditions": "fresh coating of DEET mosquito repellent on skin"}, "mosquitoes [2]": {"system": "mosquitoes", "assay": "Mosquito behaviour at decoy band with a DEET-filled ampoule", "format": "in vivo", "conditions": "only DEET used in ampoule of decoy band", "text": "Initially the scents are designed to attract the mosquitoes preferentially to the band 1. When the mosquito is nearing contact the DEET will interfere with the chemical sensors of the mosquito and they will use only infrared and visual cues. If she is close enough, within roughly three meters, she will be attracted to the dark pupil pattern 5 and infrared emissions on the band 1 and at close range land on the border area 3 of red or pink and the white area 4 of the decoy. If not close enough for visual cues she may then wander off with some dose of DEET to hamper her long-range ability to find prey. By landing on the decoy 3,4,5 the Mosquito will obtain a high concentration of DEET vapor disabling and interfering with her chemical sensors.\nChemicals such as citronella may confuse the mosquito's appetite. […] If the user moves or brushes the mosquito away this may be sufficient to put them far enough away from visual cues to attack again, reducing the chances that she will be able to find an authentic victim. The ampoules 7, 8 can be designed with a desired diffusion delivery rate of DEET and scents 10, 28 in sufficient volume to effectively deliver a steady chemical vapor for days."}, "[3]": {"conditions": "applied on the skin; from the literature search; cited from earlier work"}, "[4]": {"conditions": "highest dose (most concentrated DEET sold); cited from earlier work"}}, "data": [{"smiles": "CCN(CC)C(=O)c1cccc(C)c1", "note": "[DEET, N,N-diethyl-3-methylbenzamide]", "values": [{"measurement": "ability of mosquitoes to track and locate a human", "setting": "mosquitoes [1]", "value": "still able to track and locate a human"}, {"measurement": "mosquito behaviour toward the decoy", "setting": "mosquitoes [2]", "value": "repeatably attacking the decoy"}, {"measurement": "fraction of DEET absorbed through the skin", "setting": "[3]", "value": "6-15%"}, {"measurement": "time DEET remains on the skin", "setting": "[4]", "value": "roughly 8 hours"}]}]}
